One assay has as its system neurons. Briefly: Severe mechanical stretch injury in neurons. The following applies: 3-4 psi; Fer-1 0.4 μM, Triacsin C 10 μM, baicalein 5 μM. Format: cell-based, rat. How it is done: Mean+SD, N=4/group, *p<0.05 vs 0 h. […] Mean±SD, N=3-4/group, *p<0.05 vs control, #p<0.05 vs vehicle. […] Mean+SD, N=4/group, *p<0.05 vs vehicle.
(§1) Time course studies (0, 4, 8, 24 and 72 h) of TBI-induced changes in i) PE oxidation (oxidative lipidomics); ii) expression and activity of 15LOX, PEBP1, ACSL4, LPCAT3, iPLA2β and GPX4 (western blot); iii) formation of 15LOX/PEBP1 complexes (dual object recognition); and iv) GSH levels (fluorescent assay) will be performed as follows. An established model of in vitro TBI, severe mechanical stretch injury in primary cortical neurons, can be used. In brief, cortical neurons are cultured on 0.05% poly-D-lysine hydrobromide coated silicone substrate wells, and subjected to a computer controlled quantifiable mechanical insult by displacing the silicone substrate over a hollowed platform. In vivo TBI is induced by severe CCI (6-mm impactor tip, velocity of ±0.2 m/secs, deformation depth of 2.5 mm, impact duration of 50 msecs) to left parietal cortex in male and female PND 17 rats. To maximize rigor and reproducibility, animals are assigned to either sham (anesthesia and craniotomy) or CCI groups by block randomization. To ensure appropriate sample size for robustness, power analyses are performed in each experimental context. A sample size of 5 is preferred to detect a 25% difference in PE-OOH between CCI and control based on standard deviation observed in the experiments with an alpha of 0.05 and power of 0.80. Group assignments are blinded to the investigators who perform biochemical and histological endpoints. Statistical differences are analyzed using one-way ANOVA with post-hoc comparisons between groups if overall p<0.05 as appropriate. To address biological variability, both sexes are included.
For the compound `CCOC(=O)c1ccc(NC2CCCCC2)c(N)c1` [Fer-1], the “cell death after severe mechanical stretch injury” value is “rescued”. Still for that read-out and setting: next, `CCC/C=C/C/C=C/C=C/C=N/NN=O` [Triacsin C]: “rescued”; `O=c1cc(-c2ccccc2)oc2cc(O)c(O)c(O)c12` [baicalein]: “rescued”.

For the next assay, the system named is 15LOX/PEBP1. Description: Potency of 15LOX/PEBP1 inhibitors with anti-ferroptotic effect (Table 1). Format: cell-based.
Details: not given
From the text:
Development and testing of new compounds that inhibit 15LOX/PEBP1 complex activity. A combination of computational and experimental studies are used. […] Computer modeling considers specific features of organization of 15LOX/PEBP1 complexes and positioning of AA-PE as well as regio-specific oxygenation of AA-residues at 15th carbon. […] It has been shown that: i) binding interface of 15LOX in 15LOX/PEBP1 complex includes a helix on 15LOX (α2) and kinase binding epitope (D144, H145, R146) on PEBP1 (FIG. 8); and ii) interfacial interactions play a pivotal role in allosterically altering conformational dynamics of 15LOX in complex, and its substrate specificity. Analysis of change in access to catalytic site upon PEBP1 binding, using elastic network models indicates needed sites at 15LOX/PEBP1 binding interface. Dynamics simulations are also performed, for 15LOX alone and 15LOX/PEBP1 complex. An effective inhibitor, NCG-01, with in vivo activity has been indicated. Several other 15LOX/PEBP1 inhibitors with anti-ferroptotic effect (FIG. 9) have been identified. To test the effectiveness of compounds identified from the computational screen, RSL3 and mechanical stretch models with LDH and PI assays as a primary outcome are performed. The compounds that inhibit cell death by at least 50% are then evaluated for their effects on AA-PE and AA oxidation by 15LOX/PEBP1 complex and 15LOX alone, respectively, by LC-MS. Evaluation of the effect of compounds in suppressing AA-PE-OOH formation in cells upon proferroptotic stimuli is also performed.
For the compound `Fc1cccc(-n2cc(-c3ccccc3)nc2SCc2ccc(C(F)(F)F)cc2F)c1` [Compound 48, 2-((2-fluoro-4-(trifluoromethyl)benzyl)thio)-1-(3-fluorophenyl)-4-phenyl-1H-imidazole], the Potency result is given as “+ (+ > 1 μM)”. In the case of `CC(=O)Nc1ccc(CSc2nc(-c3ccccc3)cn2-c2cccc(F)c2)cc1` [Compound 49, N-(4-(((1-(3-fluorophenyl)-4-phenyl-1H-imidazol-2-yl)thio)methyl)phenyl)acetamide], the Potency entry is “+ (+ > 1 μM)”. For the compound `NC(=O)c1ccc(CSc2nc(-c3ccccc3)cn2-c2cccc(F)c2)cc1` [Compound 50, 4-(((1-(3-fluorophenyl)-4-phenyl-1H-imidazol-2-yl)thio)methyl)benzamide], the Potency result is listed as “+ (+ > 1 μM)”. Still for that read-out and setting: next, `Fc1cccc(-n2cc(-c3ccccc3)nc2SCc2ccc(OC(F)F)cc2)c1` [Compound 51, 2-((4-(difluoromethoxy)benzyl)thio)-1-(3-fluorophenyl)-4-phenyl-1H-imidazole]: “+ (+ > 1 μM)”; `Fc1cccc(-n2cc(-c3ccccc3)nc2SCc2ccc(C(F)F)cc2)c1` [Compound 52, 2-((4-(difluoromethyl)benzyl)thio)-1-(3-fluorophenyl)-4-phenyl-1H-imidazole]: “+ (+ > 1 μM)”. On to `CC(C)(C)OC(=O)Nc1ccc(CSc2nc(-c3ccccc3)cn2-c2cccc(F)c2)cc1` [Compound 53, tert-butyl (4-(((1-(3-fluorophenyl)-4-phenyl-1H-imidazol-2-yl)thio)methyl)phenyl)carbamate], for which the Potency result was “+ (+ > 1 μM)”. The same measure, in the same setting: with `CC(Sc1nc(-c2ccccc2)cn1-c1cccc(F)c1)c1ccc(C(F)(F)F)cc1` (stereo not shown) [Compound 54, 1-(3-fluorophenyl)-4-phenyl-2-((1-(4-(trifluoromethyl)phenyl)ethyl)thio)-1H-imidazole] the entry was “+ (+ > 1 μM)”; with `N#Cc1ccc(CSc2nc(-c3ccccc3)cn2-c2cccc(F)c2)cc1` [Compound 55, 4-(((1-(3-fluorophenyl)-4-phenyl-1H-imidazol-2-yl)thio)methyl)benzonitrile], “+ (+ > 1 μM)”; with `N#Cc1ccc(CNc2nc(-c3ccccc3)cn2-c2cccc(F)c2)cc1` [Compound 56, 4-(((1-(3-fluorophenyl)-4-phenyl-1H-imidazol-2-yl)amino)methyl)benzonitrile], “++ (++ = 101-1000 nM)”. The same measure, in the same setting: with `Cc1cccc(CNc2nc(-c3ccccc3)cn2-c2cccc(F)c2)c1` [Compound 57, 1-(3-fluorophenyl)-N-(3-methylbenzyl)-4-phenyl-1H-imidazol-2-amine] the entry was “++ (++ = 101-1000 nM)”; with `Fc1cccc(-n2cc(-c3ccccc3)nc2NCc2cccc(C(F)(F)F)c2F)c1` [Compound 58, N-(2-fluoro-3-(trifluoromethyl)benzyl)-1-(3-fluorophenyl)-4-phenyl-1H-imidazol-2-amine], “++ (++ = 101-1000 nM)”. On to `Fc1cccc(-n2cc(-c3ccccc3)nc2NCc2ccc(Cl)cc2)c1` [Compound 59, N-(4-chlorobenzyl)-1-(3-fluorophenyl)-4-phenyl-1H-imidazol-2-amine], for which the Potency entry is “++ (++ = 101-1000 nM)”.

For the compound `Fc1cccc(-n2cc(-c3ccccc3)nc2NCc2ccccc2)c1` [Compound 61, N-benzyl-1-(3-fluorophenyl)-4-phenyl-1H-imidazol-2-amine], the Potency entry was “++ (++ = 101-1000 nM)”.

Turning to `COc1cccc(CNc2nc(-c3ccccc3)cn2-c2cccc(F)c2)c1` [Compound 62, 1-(3-fluorophenyl)-N-(3-methoxybenzyl)-4-phenyl-1H-imidazol-2-amine], the Potency result is given as “++ (++ = 101-1000 nM)”.

For `Fc1cccc(-n2cc(-c3ccccc3)nc2NCc2cccc(C(F)(F)F)c2)c1` [Compound 63, 1-(3-fluorophenyl)-4-phenyl-N-(3-(trifluoromethyl)benzyl)-1H-imidazol-2-amine], the Potency entry is listed as “++ (++ = 101-1000 nM)”. The same measure, in the same setting: with `Fc1cccc(-n2cc(-c3ccccc3)nc2NCc2ccc(F)c(F)c2)c1` [Compound 64, N-(3,4-difluorobenzyl)-1-(3-fluorophenyl)-4-phenyl-1H-imidazol-2-amine] the entry was “++ (++ = 101-1000 nM)”. Still for that read-out and setting: with `Fc1cccc(-n2cc(-c3ccc(Br)cc3)nc2SCc2ccc(C3(C(F)(F)F)N=N3)cc2)c1` [Compound 65, 4-(4-bromophenyl)-1-(3-fluorophenyl)-2-((4-(3-(trifluoromethyl)-3H-diazirin-3-yl)benzyl)thio)-1H-imidazole] the entry was “+ (+ > 1 μM)”. Still for that read-out and setting: next, `Fc1cccc(-n2cc(-c3ccccc3)nc2NCc2ccc(C(F)(F)F)c(Br)c2)c1` [Compound 66, N-(3-bromo-4-(trifluoromethyl)benzyl)-1-(3-fluorophenyl)-4-phenyl-1H-imidazol-2-amine]: “++ (++ = 101-1000 nM)”; `COc1cc(CNc2nc(-c3ccccc3)cn2-c2cccc(F)c2)ccc1C(F)(F)F` [Compound 67, 1-(3-fluorophenyl)-N-(3-methoxy-4-(trifluoromethyl)benzyl)-4-phenyl-1H-imidazol-2-amine]: “++ (++ = 101-1000 nM)”; `Fc1cccc(-n2cc(-c3ccccc3)nc2NCc2ccc(C(F)(F)F)c(Cl)c2)c1` [Compound 68, N-(3-chloro-4-(trifluoromethyl)benzyl)-1-(3-fluorophenyl)-4-phenyl-1H-imidazol-2-amine]: “++ (++ = 101-1000 nM)”. Consider `Cc1cc(CNc2nc(-c3ccccc3)cn2-c2cccc(F)c2)ccc1C(F)(F)F` [Compound 69, 1-(3-fluorophenyl)-N-(3-methyl-4-(trifluoromethyl)benzyl)-4-phenyl-1H-imidazol-2-amine], for which the Potency result is recorded as “++ (++ = 101-1000 nM)”.

The subject of another assay is PND17 rats. Briefly: Controlled cortical impact (CCI) TBI model in PND17 rats. Format: in vivo, rat. The following applies: 50 mg/kg i.p. 15 min after CCI. How it is done: as §1
Histological outcome assessment. Brains are quantitatively analyzed for total number of specific cell types and lesion volume using unbiased stereology as described. Diagnostic of ferroptosis in vivo are: 1) accumulation of doubly and triply oxygenated AA-PE species; 2) increased ACSL4; 3) decreased GPX4 activity or deficiency of GSH; 4) increased activity and expression of 15LOX; and 5) high levels of 15LOX-PEBP1 co-localization detectable by dual object recognition. […] TUNEL staining is used to quantify cell death. TUNEL is commonly used to detect apoptotic cells. However, cells undergoing other types of regulated death, including ferroptosis, are also TUNEL positive. In order to determine the apoptotic cell death, staining with cleaved caspase-3 antibody is performed.
Neurocognitive function is assessed by novel object recognition (NOR) and MWM (Morris Water Maze) tests. For NOR testing, rat is placed in a small enclosure with two similar objects and allowed to explore for a 35 min habituation phase. […] Percent time exploring original vs. novel object is recorded (2 min max). […] Visible platform performance and memory retention in a single probe trial on d17 are assessed. […]
For the compound `O=c1cc(-c2ccccc2)oc2cc(O)c(O)c(O)c12` [baicalein], the AA-PE oxidation result is “decreased”, the “functional deficits in MWM task” value is given as “attenuated” and the “hippocampal TUNEL positivity” value is listed as “attenuated”.

The assay is the same for the next values; noted with them: i.c.v. administration after CCI, 24 h post-CCI.
Regarding `CCC/C=C/C/C=C/C=C/C=N/NN=O` [Triacsin C], the “neurodegeneration assessed by FJB positivity” value is reported as “attenuated neurodegeneration”.

Source of the values: patent publication US20240002350A1, “PROTEIN AND LIPID THERAPEUTIC TARGETS” (UNIVERSITY OF PITTSBURGH-OF THE COMMONWEALTH SYSTEM OF …, priority 2020, published 2024).
